Several values for one entry are separate records, joined by “and”; a condition that tells them apart may be missing. Equal values may be shown once.
Legend:
[1] = test system: high-fat diet-loaded mice with spontaneous fatty liver; assay: Effect on liver fibrosis progression in high-fat diet-loaded mice with spontaneous fatty liver; format: in vivo, FLS.B6-Lep<ob>/Shi mice
Description: Eight-week-old male FLS.B6-Lep/Shi mice were fed a high-fat diet (60 kcal % fat content, using shortening, containing 2% cholesterol and 8.7% fructose), and at the same time, the compound of the present invention was suspended in a 0.5% MC aqueous solution so as to have a dose of 5.5 to 60 mg/kg/5 mL, and orally repeatedly administered (b.i.d.) for 4 weeks. Blood was collected from the tail vein during the repeated administration period, and biochemical parameters in plasma were measured. After 4 weeks of administration, blood was collected from the abdominal vena cava under anesthesia, and then the liver was collected. Paraffin-embedded sections prepared from the collected liver were subjected to Sirius red staining. A degree of fibrosis progression in the liver was determined from a Sirius red-positive area rate and evaluated.

[2] = Metabolic stability test (human); format: in vitro ADME; details: human liver microsomes, 37° C., 30 minutes, NADPH
Description: (§1) Commercially available pooled human liver microsomes were reacted with the compound of the present invention for a given time. A residual rate was calculated by comparison between the reacted sample and the unreacted sample to evaluate a degree at which the compound of the present invention is metabolized in the liver.
(§2) The compound was reacted at 37° C. for 0 minutes or 30 minutes in the presence of 1 mmol/L NADPH in 0.2 mL of a buffer (50 mmol/L Tris-HCl pH 7.4, 150 mmol/L potassium chloride, and 10 mmol/L magnesium chloride) containing 0.5 mg protein/mL of the human liver microsomes (oxidative reaction). After the reaction, 50 μL of the reaction solution was added to 100 μL of a solution of methanol/acetonitrile=1/1 (v/v) and mixed, and the mixture was centrifuged at 3000 rpm for 15 minutes. The compound of the present invention in the centrifuged supernatant was quantified by LC/MS/MS or solid-phase extraction (SPE)/MS. The amount of the compound of the present invention remained after the reaction was calculated with the amount of the compound at 0 minutes of the reaction defined as 100%.

[3] = Metabolic stability test (rat); format: in vitro ADME
Description: [Worded in the source for another species; this species is reported under the same test.] as §1, §2

[4] = test system: mice fed an ultra-high fat, choline-deficient, methionine-lowered diet; assay: Effect on liver fibrosis progression in mice fed ultra-high fat, choline-deficient, methionine-lowered diet; format: in vivo, C57BL/6JJcl mice; design: 3-hydroxybutyric acid in plasma: unit not given here; details: for Amount of triglyceride in liver / Sirius red-positive area rate / 3-hydroxybutyric acid in plasma / Plasma triglyceride concentration: bid; for Amount of triglyceride in liver / Sirius red-positive area rate: oral, 8 weeks; for gene expression level in the liver, Fasn / gene expression level in the liver, Srebf1: vehicle = 1.00
Description: Six-week-old male C57BL/6JJcl mice were fed an ultra-high fat, choline-deficient, methionine-lowered diet (60 kcal % fat content, using lard, choline-deficient, methionine-lowered (0.1%)), and at the same time, the compound of the present invention was suspended in a vehicle (0.5% methylcellulose aqueous solution) so as to have a dose of 3 to 45 mg/kg/10 mL, and orally repeatedly administered (b.i.d.) for 8 weeks. Blood was collected from the tail vein during the repeated administration period, and biochemical parameters in plasma were measured. After 8 weeks of administration, blood was collected from the abdominal vena cava under anesthesia, and then the liver was collected. Paraffin-embedded sections prepared from the collected liver were subjected to Sirius red staining. A degree of fibrosis progression in the liver was determined from a Sirius red-positive area rate and evaluated.

[5] = 60 mg/kg, bid, individual animals

Amount of compound remained, Human [2]: 95.4% | Amount of compound remained, Rat [3]: 87% | Plasma triglyceride concentration ([4]; 15 mg/kg, Week 0): 61.6 ± 3.1 mg/dL | Plasma triglyceride concentration ([4]; 15 mg/kg, Week 1): 23.7 ± 1.0 mg/dL | Plasma triglyceride concentration ([4]; 15 mg/kg, Week 3): 19.8 ± 1.2 mg/dL | Plasma triglyceride concentration ([4]; 15 mg/kg, Week 5): 19.0 ± 1.7 mg/dL | Plasma triglyceride concentration ([4]; 15 mg/kg, Week 7): 18.8 ± 1.2 mg/dL | Plasma triglyceride concentration ([4]; 45 mg/kg, Week 0): 63.6 ± 3.7 mg/dL | Plasma triglyceride concentration ([4]; 45 mg/kg, Week 1): 22.4 ± 2.5 mg/dL | Plasma triglyceride concentration ([4]; 45 mg/kg, Week 3): 18.9 ± 1.4 mg/dL | Plasma triglyceride concentration ([4]; 45 mg/kg, Week 5): 16.5 ± 1.7 mg/dL | Plasma triglyceride concentration ([4]; 45 mg/kg, Week 7): 15.1 ± 1.0 mg/dL
SMILES: CC(=O)N[C@@H](C)CC[C@H]1OC[C@H](Oc2nc3c(F)cc(OC4CC4)cc3n2C)CO1 [Compound I-13]
Hemoglobin A1c, Before start of administration [1, 5]: 5.50% and 6.36% and 6.46% and 6.60% and 7.12% and 6.80% and 6.55% and 5.83% | Hemoglobin A1c, Day 26 of administration [1, 5]: 5.99% and 6.43% and 7.16% and 7.06% and 7.27% (2×) and 6.74% and 5.78% | Sirius red-positive area rate vs vehicle administration group (in words) ([1]; dose of 30, 45, or 60 mg/kg): significantly lower than that of the vehicle administration group | amount of triglyceride in the liver vs vehicle administration group (in words) ([1]; mouse, in vivo): not significantly different from that in the vehicle administration group | concentration of 3-hydroxybutyric acid in plasma vs vehicle administration group (in words) ([1]; mouse, in vivo): tended to be higher than that in the vehicle administration group | hemoglobin A1c (in words) ([1]; mouse, in vivo): tended to suppress an increase in hemoglobin A1c | plasma triglyceride concentration vs vehicle administration group (in words) ([1]; mouse, in vivo): not significantly different from that in the vehicle administration group | Amount of triglyceride in liver ([4]; 15 mg/kg): 179 ± 6.8 mg/g tissue | Sirius red-positive area rate ([4]; 15 mg/kg): 1.33 ± 0.20% | 3-hydroxybutyric acid in plasma ([4]; 15 mg/kg, Week 0): 298 ± 27 | 3-hydroxybutyric acid in plasma ([4]; 15 mg/kg, Week 1): 396 ± 30 | 3-hydroxybutyric acid in plasma ([4]; 15 mg/kg, Week 3): 797 ± 48 | 3-hydroxybutyric acid in plasma ([4]; 15 mg/kg, Week 5): 616 ± 37 | 3-hydroxybutyric acid in plasma ([4]; 15 mg/kg, Week 7): 501 ± 28 | gene expression level in the liver, Fasn ([4]; 15 mg/kg): 0.82 ± 0.20 | gene expression level in the liver, Srebf1 ([4]; 15 mg/kg): 0.70 ± 0.19 | Amount of triglyceride in liver ([4]; 45 mg/kg): 155 ± 7.1 mg/g tissue | Sirius red-positive area rate ([4]; 45 mg/kg): 1.06 ± 0.10 % | 3-hydroxybutyric acid in plasma ([4]; 45 mg/kg, Week 0): 369 ± 28 | 3-hydroxybutyric acid in plasma ([4]; 45 mg/kg, Week 1): 378 ± 28 | 3-hydroxybutyric acid in plasma ([4]; 45 mg/kg, Week 3): 688 ± 72 | 3-hydroxybutyric acid in plasma ([4]; 45 mg/kg, Week 5): 564 ± 77 | 3-hydroxybutyric acid in plasma ([4]; 45 mg/kg, Week 7): 462 ± 45 | gene expression level in the liver, Fasn ([4]; 45 mg/kg): 0.59 ± 0.09 | gene expression level in the liver, Srebf1 ([4]; 45 mg/kg): 0.34 ± 0.05 | Sirius red-positive area rate vs vehicle administration group (in words) ([4]; dose of 45 mg/kg): significantly lower than that of the vehicle administration group | amount of triglyceride in the liver vs vehicle administration group (in words) ([4]; dose of 45 mg/kg): significantly lower than that of the vehicle administration group | Srebf1 and Fas in the liver (in words) ([4]; mouse, in vivo): no increase in Srebf1 and Fas in the liver was observed | concentration of 3-hydroxybutyric acid in plasma vs vehicle administration group (in words) ([4]; mouse, in vivo): higher than that in the vehicle administration group | plasma triglyceride concentration vs vehicle administration group (in words) ([4]; mouse, in vivo): lower than that in the vehicle administration group
